Test results from paper PMC9731865, “Gambogic acid and juglone inhibit RNase P through distinct mechanisms” (The Journal of Biological Chemistry, 2022).
Like-named read-outs stand apart in the source and are kept apart here.

Experiments:
A. thaliana PRORP1 = target: T1, A. thaliana PRORP1 (Arabidopsis thaliana, UniProt Q66GI4); assay: FP cleavage assay, PRORP1 dose response; format: biochemical; details: for activity at 6.25 µM: 6.25 μM of inhibitor, FP cleavage assay, read-out: PRORP1 Activity (%); for IC50: 30 min preincubation, 0.3 nM PRORP1, 800 nM pre-tRNA, 25 °C, apparent IC50 for juglone
T1 construct: made in house
T1 sequence (Q66GI4 77-572): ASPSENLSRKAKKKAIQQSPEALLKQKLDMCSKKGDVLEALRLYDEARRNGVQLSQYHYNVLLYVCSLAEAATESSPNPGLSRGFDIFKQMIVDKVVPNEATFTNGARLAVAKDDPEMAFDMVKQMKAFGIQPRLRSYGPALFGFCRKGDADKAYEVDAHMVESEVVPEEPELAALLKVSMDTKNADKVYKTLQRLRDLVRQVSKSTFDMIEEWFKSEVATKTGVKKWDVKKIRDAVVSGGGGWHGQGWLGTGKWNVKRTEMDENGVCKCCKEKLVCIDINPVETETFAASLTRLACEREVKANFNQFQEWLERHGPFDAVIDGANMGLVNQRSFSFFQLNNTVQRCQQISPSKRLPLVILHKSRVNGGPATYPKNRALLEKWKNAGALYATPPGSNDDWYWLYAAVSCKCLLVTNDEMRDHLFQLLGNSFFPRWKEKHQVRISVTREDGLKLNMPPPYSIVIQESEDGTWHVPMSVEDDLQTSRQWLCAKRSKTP
Description: Compounds gambogic acid (A) and juglone (B) were incubated with enzyme at double the reaction concentration for 30 min prior to the addition of an equal volume of substrate to initiate the reaction. PRORP1 reactions (shown in green) were performed with 0.3 nM PRORP1 and 800 nM pre-tRNA containing 40 nM Fl-pre-tRNA at 25 °C in 30 mM MOPS pH 7.8, 5 mM MgCl2, 100 mM NaCl, 1 mM TCEP, 500 nM (12 μg/ml) yeast tRNA, 5 mM spermidine, 6.65 μg/ml BSA, and 0.01% NP-40. MRPP1/2/3 reactions (shown in red) were performed using 50 nM MRPP3, 500 nM MRPP1/2, 500 nM pre-tRNA containing 40 nM Fl-pre-tRNA at 37 °C in 50 mM MOPS (pH 7.8), 1 mM TCEP, 4.5 mM MgCl2, and 100 mM NaCl. B. subtilis RNase P reactions (shown in blue) were performed using 20 nM RNase P and 500 nM pre-tRNA containing 40 nM Fl-pre-tRNA at 37 °C in 50 mM Tris, pH 7.2, 5 mM MgCl2, 100 mM KCl, 500 nM (12 μg/ml) yeast tRNA, 20 mM dithiothreitol (DTT), 10 mM spermidine, and 0.01% NP-40. Equation 1 was fit to each dataset.
The activity of PRORP1 catalyzed pre-tRNA cleavage was measured by monitoring the fluorescence anisotropy (FA) signal (λex = 485 nm and λem = 535 nm) over time at 25 °C in buffer conditions optimized for a high-throughput format, 30 mM MOPS pH 7.8, 5 mM MgCl2, 100 mM NaCl, 1 mM TCEP, 500 nM (12 μg/ml) yeast tRNA, 5 mM spermidine, 6.65 μg/ml BSA, and 0.01% NP-40. Yeast tRNA^mix (Roche) was used to reduce the number of compounds that inhibit PRORP1 activity by targeting tRNA. Prior to each reaction, pre-tRNA was heated for 3 min at 95 °C to unfold the RNA and refolded in the reaction buffer at room temperature (25 °C) for 30 min. Reactions were performed in black, 96-well plates (Corning Incorporation, #3686) using a TECAN plate-reader (Infinite F500, G-factor = 1.05) at 25 °C, and the FA values recorded. Reactions were initiated with the addition of substrate to enzyme. Experiments were done in the presence of excess substrate. The concentration of enzyme was 0.3 to 5 nM, the concentration of labeled substrate (Fl-pre-tRNA) was 40 nM, and the concentration of pre-tRNA was 120 to 4000 nM. The concentration of Fl-pre-tRNA was held constant in all reactions.
The dose response was measured using the FP assay as described above with varying concentrations of compound. Compounds were incubated with PRORP1 at twice the reaction concentration for 30 min prior to the addition of equal volumes of substrate to initiate the reaction. Experiments were done under multiple turnover conditions (same buffer conditions as the FP assay). […] PRORP1 activity was determined as a function of inhibitor concentration, and Equation 1 was fit to the data to determine the IC50 value. The standard error of the mean (SEM) is reported from the fit.(1) Activity(%)=100/1+([I]/IC50)^n

T. maritima RNase P [1] = target: T. maritima RNase P; parameters: method as in PMID 30997498; details: cited from earlier work
T. maritima RNase P [2] = assay: T. maritima RNase P inhibition (literature); format: biochemical; details: own PRORP IC50 against the cited T. maritima IC50 of 12.8 μM (ref 28)
PRORP1 wildtype = target: T2, PRORP1 wildtype (Arabidopsis thaliana, UniProt Q66GI4); assay: Time-dependent inactivation of PRORP1 by juglone (varying preincubation time); format: biochemical, A. thaliana; details: for kinact/KI: wildtype PRORP1, 0.3 nM PRORP1, 250 nM pre-tRNA, 22 °C
T2 construct: made in house
T2 sequence (Q66GI4 77-572): T1 sequence (Q66GI4 77-572)
Description: A global fit of the data (Equations 5 and 6) was used to calculate kinact/KI. […] The errors shown are the standard errors obtained from fitting Equation 5 to the data in A independently. Reactions were performed with 0.3 nM PRORP1, 250 nM pre-tRNA containing 40 nM Fl-pre-tRNA, at 22 °C, in 30 mM MOPS, pH 7.8, 1 mM TCEP, 5 mM MgCl2, 500 nM (12 μg/ml) yeast tRNA, 5 mM spermidine, 6.65 μg/ml BSA, and 0.01% NP-40. Data are fit to determine kinact/KI.
For the analysis of juglone, PRORP1 activity was measured with varying preincubation time and juglone concentration. Varying concentrations of juglone were preincubated with a 35 μl of PRORP1 from 2 min to 4 h in 30 mM MOPS pH 7.8, 5 mM MgCl2, 100 mM NaCl, 1 mM TCEP, 500 nM (12 μg/ml) yeast tRNA^mix, 5 mM spermidine, 6.65 μg/ml BSA, and 0.01% NP-40. The concentration of DMSO in each reaction was held constant at 1%. Reactions were initiated by addition of 5 μl of substrate for a final working concentration of 0.3 nM PRORP1 and 250 nM pre-tRNA, a substrate concentration well below the KM value. The dependence of the initial velocity on the preincubation time was fit to a single exponential decay equation (Equation 5) to determine kinact,app at each juglone concentration. The values for kinact,app for various juglone concentrations (represented by [I]) were fit with Equation 6 to determine kinact/KI, assuming a 2-step inactivation mechanism.(5) Activity(%)=Ae^−(kinact,app)t (6) kinact,app=kinact/KI(KI[I]/KI+[I])

SMILES | activity at 6.25 µM (A. thaliana PRORP1) | IC50 (A. thaliana PRORP1) | IC50 (T. maritima RNase P [1]) | times more potent against PRORP than T. maritima RNase P (T. maritima RNase P [2]) | Ki (PRORP1 wildtype) | decrease in initial activity (extrapolated to 0 min preincubation) (PRORP1 wildtype; 10 μM juglone (highest concentration)) | Hill coefficient n of the fit to 0-min preincubation data (PRORP1 wildtype; Equation 1) | mode of inhibition of PRORP1 (PRORP1 wildtype; inhibition depends on preincubation time) | kinact/KI (PRORP1 wildtype; read-out: kinact/KI, global fit using Equations 5 and 6 (converted)) | kinact/KI (PRORP1 wildtype; read-out: kinact/KI, hyperbolic fit using Equation 6 (converted))
CC(C)=CCC[C@]1(C)C=Cc2c(O)c3c(c(CC=C(C)C)c2O1)O[C@]12C(=C[C@@H]4C[C@H]1C(C)(C)O[C@@]2(C/C=C(/C)C(=O)O)C4=O)C3=O [gambogic acid] | 29.1% | 1.01 ± 0.04 µM | – | – | – | – | – | – | – | –
O=C1C=CC(=O)c2c(O)cccc21 [juglone, 5-hydroxy-1,4-naphthalenedione] | 20.2% | 2.1 ± 0.04 µM | 12.8 µM | about 10 times | 12.5 ± 2.7 µM | 50% | 1 | time-dependent inhibitor | 16.7 M⁻¹ s⁻¹ | 16.7 M⁻¹ s⁻¹
